We go through four molecules from patent publication US20150044346A1, “USE OF OXAZOLINES AS AROMA/FLAVOUR PRECURSORS” (NESTEC S.A., priority 2012, published 2015).

This series is described as follows: Release of Strecker aldehyde from 3-oxazoline precursor stirred in water at 37° C. (stable isotope dilution, HS-GC-MS / GC-MS). The following applies: for isomer I (formed) (mol %) / isomer II (unreacted) (mol %): starting from isomer II; for isomer I (unreacted) (mol %) / isomer II (formed) (mol %): starting from isomer I. It is filed as physicochemical.
Setting [1] is: 5 min, stirred in water at 37° C.
[2] abbreviates: 15 min, stirred in water at 37° C.
The mark [3] stands for this setting: 30 min, stirred in water at 37° C.
Setting [4] is: Control without addition of water.
[5] abbreviates: Control experiment without addition of water.

“And” between values parts separate entries of the source, which are not always exact repeats. Equal values may be shown once. Where only a bound is given, the exact number is not on record here.

`CC(C)CC1N=CC(C)O1` (single isomer, unassigned) [2-(2-methylpropyl)-5-methyl-3-oxazoline isomer II, 2-(2-methylpropyl)-5-methyl-3-oxazoline]: the “3-methylbutanal (mol %) generated from precursor” value (from here on “3-methylbutanal (mol %) generated”) under setting [1] was 72.5 mol %; the “3-methylbutanal (mol %) generated” value under setting [2] came out at 81.4 mol %; the “3-methylbutanal (mol %) generated” value under setting [3] came to 92.2 mol %; the “3-methylbutanal (mol %) generated” value (Control experiment without addition of water, in relation to amount of precursor used) came out at 0.4 mol %. For the same molecule, the “isomer I (formed) (mol %)” value (5 min, water 37° C.) is reported as 3.0 mol %; the “isomer I (formed) (mol %)” value (15 min, water 37° C.) came to 3.7 mol %; the “isomer I (formed) (mol %)” value (30 min, water 37° C.) was 2.2 mol %; the “isomer I (formed) (mol %)” value under setting [4] turned out to be 1.7 mol %. Besides, the “isomer II (unreacted) (mol %)” value is, setting by setting: (5 min, water 37° C.) 25.7 mol %; (15 min, water 37° C.) 16.7 mol %; (30 min, water 37° C.) 7.2 mol %; under setting [4], 98.3 mol %.
Turning to `CC1C=NC(C(C)C)O1` (single isomer, unassigned) [2-(1-methylethyl)-5-methyl-3-oxazoline], the “methylpropanal (mol %) generated from precursor” value (“methylpropanal (mol %) generated” below) under setting [1] stood at 46.0 mol %, the “methylpropanal (mol %) generated” value under setting [2] was found to be 53.5 mol %, the “methylpropanal (mol %) generated” value under setting [3] is recorded as 56.1 mol % and the “methylpropanal (mol %) generated” value under setting [5] is reported as 0.1 mol %.
On to `Cc1ccccc1C1N=CC(C)O1` (single isomer, unassigned; isomer i) [2-methylphenyl-5-methyl-3-oxazoline isomer I, 2-methylphenyl-5-methyl-3-oxazoline], for which the “phenylacetaldehyde (mol %) generated from precursor” value under setting [1] is listed as 16.6 mol %, the “phenylacetaldehyde (mol %) generated from precursor” value under setting [2] is on record as 23.1 mol %, the “phenylacetaldehyde (mol %) generated from precursor” value under setting [3] was 42.5 mol % and the “phenylacetaldehyde (mol %) generated from precursor” value under setting [5] turned out to be 0.2 mol %. In addition, the “isomer I (unreacted) (mol %)” value is, setting by setting: (5 min, water 37° C.) 31.8 mol %; (15 min, water 37° C.) 31.1 mol %; (30 min, water 37° C.) 22.3 mol %; under setting [4], 98.0 mol %. Also, the “isomer II (formed) (mol %)” value came to 7.1 mol % (5 min, water 37° C.); 6.3 mol % (15 min, water 37° C.); 5.8 mol % (30 min, water 37° C.); 2.0 mol % under setting [4]. Where the note is “after 5 min, water 37° C.”, the “corresponding isomer II formed from purified isomer I” value is 7%. For the same molecule, the phenylacetaldehyde liberated is 17% (after 5 min, water 37° C.); more than 20% (after 15 min, water 37° C.); > 40% and 43% (after 30 min, water 37° C.).
As for `CCC(C)C1N=CC(C)O1` (single isomer, unassigned) [2-(1-methylpropyl)-5-methyl-3-oxazoline], the “2-methylbutanal (mol %) generated from precursor” value by setting is: under setting [1], 14.6 mol %; under setting [2], 33.3 mol %; under setting [3], 55.6 mol %; under setting [5], 1.1 mol %.
